Results reported in patent publication US11814376B2, “Hepatitis b core protein modulators” (Assembly Biosciences, Inc., priority 2015, dated 2023).

Assays:
[1] = tested on: HBV viral load in AD38 cells; test: Viral load production in AD38 cells, quantitative PCR of the core sequence in supernatant; format: cell-based; details: 10 μM compound, 6 days at 37° C., supernatant qPCR, relative to DMSO control; for activity at 10 µM: Hepatitis B virus, 144 h, read-out: AD38 Viral Load (%) (VL with cmpd/VL in DMSO control) at 10 μM
AD38 cells = test: Viability of AD38 cells (Promega CellTiter-Glo); format: cell-based; details: 10 μM compound, 6 days, CellTiter-Glo luminescence normalized to DMSO control (100%)
Method in brief: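 After 6 days of compound exposure at 37° C (compound added as 10× solution in 10% DMSO; 50,000 cells/well, collagen-coated), medium was replaced with tetracycline-free DMEM/F12, 2% FBS, 1% DMSO. CellTiter-Glo luminescence was then recorded and normalized to DMSO-treated wells as 100% viability.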

| Structure (SMILES) | activity at 10 µM [1] | AD38 Viability Normalized Result (cmpd/DMSO %) at 10 μM (AD38 cells) | AD38 Viral Load (%) (VL with cmpd/VL in DMSO control) at 10 μM [1] |
| --- | --- | --- | --- |
| CN(C)c1ccnc(-c2ncc(CNC(=O)c3ccc4c(c3)NC(=O)c3ccccc3S4(=O)=O)s2)c1 [compound 1889, N-((2-(4-(dimethylamino)pyridin-2-yl)thiazol-5-yl)methyl)-11-oxo-10,11-dihydrodibenzo [b, f] [1, 4] thiazepine-8-carboxamide 5,5-dioxide] | 4.6% | 98% |  |
| COc1c(C)cc(-c2ncc(CNC(=O)c3ccc4c(c3)NC(=O)c3ccccc3S4(=O)=O)s2)cc1C [1806-A, N-((2-(4-methoxy-3,5-dimethylphenyl)thiazol-5-yl)methyl)-11-oxo-10, 11-dihydrodibenzo [b, f] [1, 4] thiazepine-8-carboxamide 5,5-dioxide] | 0.3% | 66% |  |
| N#Cc1ccc(-c2ncc(CNC(=O)c3ccc4c(c3)NC(=O)c3ccccc3S4(=O)=O)s2)cc1F [compound 1815] | 0.2% | 88% |  |
| Cl.NCCc1ccccc1-c1ncc(CNC(=O)c2ccc3c(c2)NC(=O)c2ccccc2S3(=O)=O)s1 [compound 1842, N-((2-(2-(2-aminoethyl)phenyl)thiazol-5-yl)methyl)-11-oxo-10, 11-dihydrodibenzo [b, f] [1, 4] thiazepine-8-carboxamide 5,5-dioxide hydrochloride] | 46.5% | 109% |  |
| O=C(NCc1cnc(-c2ccc(N3CCCC3=O)cc2)s1)c1ccc2c(c1)NC(=O)c1ccccc1S2(=O)=O [compound 1858] | 0.7% | 103% |  |
| Cc1cc2c(cc1C(=O)NCc1cnc(-c3ccc(C#N)cc3)s1)NC(=O)c1ccccc1S2(=O)=O [compound 1911] | 0.4% | 111% |  |
| CC1(C)CCN(c2ncc(CNC(=O)c3ccc4c(c3)NC(=O)c3ccccc3S4(=O)=O)s2)C1 [compound 1981] | 0.2% | 105% |  |
| CCN(CC)CCCCc1cnn(-c2ncc(CNC(=O)c3ccc4c(c3)NC(=O)c3ccccc3S4(=O)=O)s2)c1 [compound 11100] | 6.8% | 102% |  |
| Cc1c(C(=O)NCc2cnc(-n3cccn3)s2)ccc2c1NC(=O)c1ccccc1S2(=O)=O [compound 11074] |  | 103% | 0.6% |
| CCN(CC)CCC(C)Oc1ccc(-c2ncc(CNC(=O)c3ccc4c(c3)NC(=O)c3ccccc3S4(=O)=O)s2)cc1 (stereo not shown) [compound 11101] | 1.9% | 85% |  |
| Cc1c(C(=O)NCc2cnc(C(F)(F)F)s2)ccc2c1NC(=O)c1ccccc1O2 [compound 1941] | 5.2% | 84% |  |
| O=C1Cc2cc(-c3ncc(CNC(=O)c4ccc5c(c4)NC(=O)c4ccccc4O5)s3)ccc2N1 [compound 1833] | 67.4% | 102% |  |
| O=C(NCc1cnc(CN2CCOCC2)s1)c1ccc2c(c1)NC(=O)c1ccccc1S2(=O)=O [compound 1927] | 4.7% | 92% |  |
| O=C(NCc1cnc(-c2cnco2)s1)c1ccc2c(c1)NC(=O)c1ccccc1S2(=O)=O [compound 1957] | 1.5% | 94% |  |
| O=C(NCc1cnc(-c2ccc(O)cc2)s1)c1ccc2c(c1)NC(=O)c1cccc(F)c1S2 [compound 1753] | 2.4% | 97% |  |
| O=C(NCc1cnc(-c2ccc3[nH]ncc3c2)s1)c1ccc2c(c1)NC(=O)c1ccccc1S2(=O)=O [compound 1805] | 0.6% | 97% |  |
| CC(C)c1ncc(CNC(=O)c2ccc3c(c2)NC(=O)c2ccccc2O3)s1 [compound 1559] | 0.7% | 87% |  |
| Cl.NCCNC(=O)c1ccc(-c2ncc(CNC(=O)c3ccc4c(c3)NC(=O)c3ccccc3S4(=O)=O)s2)cc1 [compound 11017, N-((2-(4-((2-aminoethyl)carbamoyl)phenyl)thiazol-5-yl)methyl)-11-oxo-10, 11-dihydrodibenzo [b, f] [1, 4] thiazepine-8-carboxamide 5,5-dioxide hydrochloride] | 21% | 86% |  |

| Structure (SMILES) | activity at 10 µM [1] | AD38 Viability Normalized Result (cmpd/DMSO %) at 10 μM (AD38 cells) | AD38 Viral Load (%) (VL with cmpd/VL in DMSO control) at 10 μM [1] |
| --- | --- | --- | --- |
| Cc1c(C(=O)NCc2cnc(-c3ccc(O)cc3)s2)ccc2c1NC(=O)c1ccccc1S2(=O)=O [compound 1768] | 0.4% | 94% |  |
| NC(=O)c1ccc(-c2ncc(CNC(=O)c3ccc4c(c3)NC(=O)c3ccccc3O4)s2)cc1 [compound 1770, N-((2-(4-carbamoylphenyl)thiazol-5-yl)methyl)-11-oxo-10, 11-dihydrodibenzo [b, f] [1, 4] oxazepine-8-carboxamide] | 32.5% | 77% |  |
| O=C(NCc1cnc(-c2ccc(SCCCN3CCCCC3)cc2)s1)c1ccc2c(c1)NC(=O)c1ccccc1S2(=O)=O [compound 11065, 11-oxo-N-((2-(4-((3-(piperidin-1-yl)propyl)thio)phenyl)thiazol-5-yl)methyl)-10, 11-dihydrodibenzo [b, f] [1, 4] thiazepine-8-carboxamide 5,5-dioxide] | 1.2% | 66% |  |
| O=C(NCc1cnc(N2CCS(=O)(=O)CC2)s1)c1ccc2c(c1)NC(=O)c1ccccc1O2 [compound 1866] | 2.9% | 98% |  |
| Cc1c(C(=O)NCc2cnc(-c3ccc(C#N)cc3)s2)ccc2c1NC(=O)c1ccccc1O2 [compound 1942] | 3% | 106% |  |
| Cc1c(C(=O)NCc2cnc(-c3ccccn3)s2)ccc2c1NC(=O)c1ccccc1S2(=O)=O [compound 11077] | 0.9% | 90% |  |
| O=C(NCc1cnc(-c2ccc([N+](=O)[O-])cc2)s1)c1ccc2c(c1)NC(=O)c1ccccc1S2(=O)=O [1645-A] | 0.3% | 98% |  |
| COC(=O)c1ccc(-c2ncc(CNC(=O)c3ccc4c(c3)NC(=O)c3ccccc3S4)s2)cc1 [1599-A, methyl 4-(5-((11-oxo-10, 11-dihydrodibenzo [b, f] [1, 4]thiazepine-8-carboxamido)methyl)thiazol-2-yl) benzoate] | 50.9% | 98% |  |
| Cl.NCCCCc1ccc(-c2ncc(CNC(=O)c3ccc4c(c3)NC(=O)c3ccccc3S4(=O)=O)s2)cc1 [compound 11004, N-((2-(4-(4-aminobutyl)phenyl)thiazol-5-yl)methyl)-11-oxo-10, 11-dihydrodibenzo [b, f] [1, 4] thiazepine-8-carboxamide 5,5-dioxide hydrochloride salt] | 5.5% | 94% |  |
| O=C(NCc1cnc(-c2ccc(O)cc2)s1)c1ccc2c(c1)NC(=O)c1ccc(F)cc1S2 [compound 1747] | 3% | 95% |  |
| O=C(NCc1cnc(-c2ccc(CCCCN3CCOCC3)cc2)s1)c1ccc2c(c1)NC(=O)c1ccccc1S2(=O)=O [compound 11056] | 0.8% | 96% |  |
| CN1CCC[C@H]1COc1ccc(-c2ncc(CNC(=O)c3ccc4c(c3)NC(=O)c3ccccc3S4(=O)=O)s2)cc1 [compound 11135, (S)—N-((2-(4-((1-methylpyrrolidin-2-yl)methoxy)phenyl)thiazol-5-yl)methyl)-11-oxo-10,11-dihydrodibenzo [b, f] [1, 4] thiazepine-8-carboxamide 5,5-dioxide] | 1.8% | 91% |  |
| N#Cc1ccc(-c2ncc(CNC(=O)c3ccc4c(c3)NC(=O)c3ccccc3S4(=O)=O)s2)c(F)c1 [compound 1814] | 0.9% | 92% |  |
| O=C(NCc1cnc(-c2ccc(C#CCCN3CCOCC3)cc2)s1)c1ccc2c(c1)NC(=O)c1ccccc1S2(=O)=O [compound 11061, N-((2-(4-(4-morpholinobut-1-yn-1-yl)phenyl)thiazol-5-yl)methyl)-11-oxo-10, 11-dihydrodibenzo [b, f] [1, 4] thiazepine-8-carboxamide 5,5-dioxide] | 0.9% | 95% |  |
| CNCCCOc1ccc(-c2ncc(CNC(=O)c3ccc4c(c3)NC(=O)c3ccccc3S4(=O)=O)s2)cc1 [compound 1989, N-((2-(4-(3-(methylamino)propoxy)phenyl)thiazol-5-yl)methyl)-11-oxo-10, 11-dihydrodibenzo [b, f] [1, 4] thiazepine-8-carboxamide 5,5-dioxide] | 2.5% | 90% |  |
| CC(C)CN1c2ccc(C(=O)NCc3cnc(C(F)(F)F)s3)cc2NC(=O)c2ccccc21 [compound 11043] | 12% | 100% |  |
| CCN(CC)CCCOc1ccc(-c2ncc(CNC(=O)c3ccc4c(c3)NC(=O)c3ccccc3O4)s2)cc1.Cl [compound 11162, N-((2-(4-(3-(diethylamino)propoxy)phenyl)thiazol-5-yl)methyl)-11-oxo-10, 11-dihydrodibenzo [b, f] [1, 4] oxazepine-8-carboxamide hydrochloride] | 8.7% | 104% |  |
